Measured values taken from US20230374034A1, “NOVEL BICYCLIC COMPOUNDS” (PRISM BIOLAB CO., LTD., priority 2020, published 2023).

What follows are compounds tested on NICD (Notch intracellular domain) CSL-bla reporter in HeLa cells (assay: Notch assay (CellSensor T-REx NICD CSL-bla HeLa beta-lactamase reporter; Method 1 / Method 2)). Conditions: Homo sapiens, 10 μM compound, Method 2 (40 nL of 1000× compound added to plate with Echo), read-out: inhibiton (%) at 10 μM.
Format: cell-based
Procedure, shortened: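 HeLa cells carrying doxycycline-inducible NICD and a CSL-driven beta-lactamase reporter, 10^3 cells/well, were treated with compound plus doxycycline for 16-20 h at 37 °C. CCF4-AM substrate was loaded for 4 h at room temperature; background-subtracted blue (460 nm)/green (530 nm) emission ratio taken per well.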

| Structure (SMILES) | inhibition at 10 µM |
| --- | --- |
| CC(C)C[C@H]1ON(C(=O)OCc2ccccc2)C2CN(C3CCN(C)CC3)C(=O)[C@H](CCCCNC3CN(C(=O)OC(C)(C)C)C3)N2C1=O (stereo partly drawn) [Compound I-146, benzyl (3R,6S)-6-(4-((1-(tert-butoxycarbonyl)azetidin-3-yl)amino)butyl)-3-isobutyl-8-(1-methylpiperidin-4-yl)-4,7-dioxohexahydropyrazino[2,1-c][1,2,4]oxadiazine-1(6H)-carboxylate] | 105% |
| CC(C)C[C@H]1C(=O)N(C2CCN(C)CC2)CC2N(CCCc3ccccc3)O[C@H](CC3CCCCC3)C(=O)N21 (stereo partly drawn) [Compound I-141, (3R,6S)-3-(cyclohexylmethyl)-6-isobutyl-8-(1-methylpiperidin-4-yl)-1-(3-phenylpropyl) tetrahydropyrazino [2,1-c][1,2,4]oxadiazine-4,7(3H,6H)-dione] | 83.1% |
| CC(C)[C@H]1C(=O)N(CCc2cccc3ccccc23)CC2N(C(=O)OCc3ccccc3)O[C@H](Cc3ccc(O)cc3)C(=O)N21 (stereo partly drawn) [Compound I-44, (3R,6S)-benzyl 3-(4-hydroxybenzyl)-6-isopropyl-8-(2-(naphthalen-1-yl)ethyl)-4,7-dioxohexahydropyrazino[2,1-c][1,2,4]oxadiazine-1(6H)-carboxylate] | 63.1% |
